In patent US12195551B2, “Combination of an ErbB-2/ErbB-3 bispecific antibody with endocrine therapy for breast cancer” (Merus N.V., priority 2017, dated 2025):
Several values for one entry are separate records, joined by “and”; a condition that tells them apart may be missing. Equal values may be shown once. Entries after “also recorded” stand apart in the source; their conditions may differ.

What was measured:
[1] = test system: human HBCx-34 breast tumor xenograft; assay: Antitumor efficacy in HBCx-34 patient-derived breast cancer xenograft (study XTS-1521); assay type: in vivo, mouse
Experimental: Antitumor efficacy of an HER2/HER3 targeting antibody was determined in the context of a combination treatment together with an aromatase inhibitor. […] It was used as single agent and in combination with the aromatase inhibitor Letrozole. The hormone-dependent HBCx-34 patient-derived breast cancer xenograft model established in immunodeficient mice was used as an example of a breast cancer.
The HBCx-34 PDX model was derived from a treatment-naïve primary breast infiltrating ductal carcinoma.
Tumor-bearing mice received estrogen diluted in drinking water (β-oestradiol, 8.5 mg/l), from the date of tumor implant to the date of inclusion. During the treatment period, mice were not supplemented with estrogen.
Tumors of the same passage were transplanted subcutaneously onto 6-24 mice (donor mice, passage (n−1)). When these tumors reached 1000 to 2000 mm^3, donor mice were sacrificed by cervical dislocation, tumors were aseptically excised and dissected. After removing necrotic areas, tumors were cut into fragments measuring approximately 20 mm^3 and transferred in culture medium before grafting.
95 mice were anaesthetized with 100 mg/kg ketamine hydrochloride (batch 5D92, Exp: 2017/03, Virbac) and 10 mg/kg xylazine (batch KP0AX9X, Exp: 2017/08, Bayer), and then skin was aseptized with a chlorhexidine solution, incised at the level of the interscapular region, and a 20 mm^3 tumor fragment was placed in the subcutaneous tissue. Skin was closed with clips. All mice from the same experiment were implanted on the same day.
Treatments were randomly attributed to boxes housing up to 5 mice and were initiated 36 days post implantation of the tumor (42% inclusion rate). The study was terminated following 57 days after the start of treatment.
Tumor volume was evaluated by measuring tumor diameters, with a calliper, biweekly during the experimental period.
The formula TV (mm3)=[length (mm)×width (mm)2]/2 was used, where the length and the width are the longest and the shortest diameters of the tumor, respectively.
A total of 4 groups were used as summarized in the scheme below. Each group initially included 10 mice.
All treatment doses were body weight adjusted at each injection.

[2] = test system: MCF-7 human breast carcinoma; assay: Efficacy in nude mouse xenograft model of MCF-7 human breast carcinoma; assay type: in vivo; settings: for % TGI (tumor growth inhibition): D25, relative to the control group, Faslodex 5.0 mg/animal, Tamoxifen 1 mg/animal; for % TGI (tumor growth inhibition) / median tumor volume: MCLA-128 25 mg/kg i.p.; for median tumor volume: D25, Faslodex 5.0 mg/animal s.c. qwk×5, Tamoxifen 1 mg/animal s.c. qod×15; for P relative to the control group: D25 tumor volumes, Mann-Whitney test; for anti-tumor efficacy / survival benefit (in words): MCF-7 nude mouse xenograft model; for Volume (mm^3) of xenograft MCF-7 tumors / Weight (mgs) of xenograft MCF-7 tumors: individual tumors of sampling groups 8-10 for pharmacodynamic analysis, 8 day treatment, harvested 24 hours after last dose
Experimental: MCLA-128 was evaluated as monotherapy and in combination with the SERM Tamoxifen and SERD Fulvestrant (Faslodex®) for efficacy in a nude mouse xenograft model of estrogen responsive MCF-7 human breast carcinoma. The study design also included tumor collection for downstream analysis.
Treatments began on D1 in mice with established subcutaneous MCF-7 tumors. The study endpoint was intended to be a tumor volume endpoint of 1000 mm3 45 days, whichever came first. […] Tumor regressions, mean tumor growth, and treatment tolerability also were considered.
The animals were fed ad libitum water (reverse osmosis, 1 ppm Cl) and NIH 31 Modified and Irradiated Lab Diet® consisting of 18.0% crude protein, 6.0% crude fat, and 5.0% crude fiber. The mice were housed on irradiated Enrich-o'Cobs™ Laboratory Animal Bedding in static 85 microisolators on a 12-hour light cycle at […] (68-72° F.) and 40-60% humidity.
Three days prior to tumor cell implantation, estrogen pellets (0.36 mg estradiol, 60-day release, Innovative Research of America, Sarasota, FL) were implanted subcutaneously between the scapulae of all test animals using a sterilized trocar.
Xenografts were initiated with cultured MCF-7 human breast carcinoma cells. Tumor cells were grown to mid-log phase in RPMI-1640 medium containing 10% fetal bovine serum, 100 units/mL penicillin G, 100 μg/mL streptomycin sulfate, 2 mM glutamine, 10 mM HEPES, 0.075% sodium bicarbonate and 25 μg/mL gentamicin. On the day of tumor cell implant, the cells were trypsinized, pelleted, and resuspended in phosphate buffered saline (PBS) at a concentration of 1×10e8 cells/mL. Each test mouse received 1×10e7 MCF-7 cells implanted subcutaneously in the right flank, and tumor growth was monitored as their mean volume approached the desired 100 to 150 mm3 range.
Nineteen days after tumor cell implantation, designated as D1 of the study, the mice were placed into six groups of 15 animals and four groups of six animals, Individual tumor volumes ranged from 75 to 196 mm3 and group mean tumor volumes of 134-137 mm3 on D1. Tumor weight was estimated with the assumption that 1 mg is equivalent to 1 mm3 of tumor volume.
MCLA-128 was stored at 4° C., was provided pre-formulated at 2.5 mg/mL and ready to dose as 25 mg/kg in a 10 mL/kg dose volume, and was protected from light during storage and handling. Tamoxifen (Sigma-25 Aldrich. Lot No. WXBB5732V) was received as a powder and was stored at 4° C. protected from light. Each week, a 5 mg/mL dose solution was prepared in corn oil, and each mouse received 0.2 mL for a dose of 1 mg/animal. The dose solution was stored at 4° C. Fulvestrant tradename Faslodex® (AstraZeneca, Lot No. LV032, LW466, and LX432) was received as 50 mg/mL stock solution that was stored at 4° C. Each dosing day, the stock was diluted in corn oil to 25 mg/mL, and each mouse received 0.2 mL for a dose of 5 mg/animal.
Groups 1 and 7 served as controls for efficacy and sampling, respectively, and received MCLA-128 vehicle intraperitoneally (i.p.) on D1, 4, 8, 11, 15, 18, 22, 25, and 29 and corn oil subcutaneously (s.c.) every other day for fifteen doses (qod×15). Groups 2 and 8 were administered MCLA-128 at 25 mg/kg, i.p., on the same schedule as MCLA-128 vehicle. Groups 3 and 9 were administered Faslodex® at 5.0 mg/animal, s.c., once weekly for five weeks (qwk×5). Group 4 was administered Tamoxifen at 1 mg/animal, s.c., qod×15. Groups 5 and 10 received MCLA-128 and Faslodex®, on the regimens described above. Group 6 received MCLA-128 and Tamoxifen on the regimens described above.
MCLA-128 was administered at a 10 mL/kg dose volume, scaled to the individual body weight of each animal.

[3] = test system: total HER2, total HER3, HER2:HER3 dimers, HER3-PI3K complexes and phosphorylated HER3; assay: VeraTag assays (five assays) on MCF-7 xenograft tumors; assay type: in vivo, human; settings: round 1, 3 tumors per group
Experimental: Xenograft mice were treated for 8 days with a total of 3 doses of MCLA-128 or 2 doses of Fulvestrant or the combination thereof. 24 hours after the last dose, tumors were harvested, processed to FFPE and subjected to VeraTag analysis for the indicated assays. Five independent tumors per treatment group were used for the final analysis. A statistical t-test compared all groups independently. * indicates P<0.01.
(§3) The initial VeraTag assay analysis (round 1) was performed with 3 tumors per group
(§4) Prior to the VeraTag analysis, tumors were sectioned and stained with hematoxylin-eosin to determine the percentage of tumor content. Microlaser capture was used to grossly remove any non-tumor content. The initial round of analysis included the following five VeraTag assays: total HER2, total HER3, HER2:HER3 dimers, HER3-PI3K complexes and phosphorylated HER3.

[4] = test system: cells stimulated with high concentrations of heregulin (HRG); assay: In vitro potency in heregulin-stimulated cells; assay type: cell-based
[5] = MCLA-128 25 mg/kg i.p., Letrozole […] p.o. qdx57
Experimental: All animals were weighed biweekly during the experimental period.
Toxicity of the different treatments was determined as: body weight loss percent (% BWL)=100−(mean BWx/mean BW0×100), where BWx is the mean BW at any day during the treatment and BW0 is the mean BW on the 1st day of treatment.
HER2:HER3 dimers = assay: VeraTag assay HER2:HER3 dimers in MCF-7 xenograft tumors; assay type: in vivo, human
Experimental: (§5) Modulation of levels of total HER2, total HER3 and HER2:HER3 dimers in MCF-7 tumors after 8 day treatment period. […] 24 hours after the last dose, tumors were harvested, processed to FFPE and subjected to VeraTag analysis for the indicated assays. Five independent tumors per treatment group were used for the final analysis. A statistical t-test compared all groups independently. * indicates P<0.01.
(§6) All formalin-fixed tumors from example 2 were processed to FFPE blocks. The initial VeraTag assay analysis (round 1) was performed with 3 tumors per group
as §4
(§7) The tumors analyzed in Round 1 that had scores close to the average value of the specific assays were included in Round 2 to estimate the inter-assay reproducibility and to ensure the data from the two independent experiments could be combined.

total HER3 = assay: VeraTag assay total HER3 in MCF-7 xenograft tumors; assay type: in vivo, human; settings: data from both rounds combined; 8 day treatment
Experimental: as §5, §6, §4, §7

phosphorylated HER3 = assay: VeraTag assay phosphorylated HER3 in MCF-7 xenograft tumors; assay type: in vivo, human; settings: round 1
Experimental: as §3, §4

HER3-PI3K complexes = assay: VeraTag assay HER3-PI3K complexes in MCF-7 xenograft tumors; assay type: in vivo, human; settings: round 1
Experimental: as §3, §4

Akt = assay: Reverse phase protein array (RPPA) in MCF-7 tumor xenografts: Akt; assay type: in vivo, human; settings: vs vehicle group, one-way ANOVA; tumors collected at maximum tolerated volume or day 39
From the text: (§1) FIG. 9. Reverse phase protein array (RPPA) in MCF-7 tumor xenografts treated with vehicle, MCLA-128, Fulvestrant, Tamoxifen, MCLA-128+ Fulvestrant or MCLA-128+ Tamoxifen. Proteins detected in this assay included (phospho)-Akt and (phospho)-HER3 (full data provided in Appendix 4). One-way ANOVA compared levels in all tumors derived from treatment groups with those derived from the PBS group. ** indicates P<0.01.
(§2) Tumors from groups 1-6 were collected when they had reached the maximum tolerated volume, or at the end of the experiment at day 39, which was 10 days after the last dose. Per treatment group, six tumors were included in the Reverse phase protein array (RPPA). The selection of tumors was made so that the average tumor size of the 6 specimens was close to that of the whole group. RPPA analysis was performed as follows: tumors were sectioned and placed on immunohistochemistry slides. Stromal and inflammatory content was macrodissected to purify for tumors cells. Protein lysates were prepared and protein content was quantified. […] Reverse phase protein array (RPPA) data were analyzed using one-way ANOVA to detect significant differences between the treatment groups and the vehicle group. […] Total ERK levels were increased in the single agent groups only, no differences were measured in the other groups or in the phosphorylated ERK analysis. […]

HER2 = assay: Reverse phase protein array (RPPA) in MCF-7 tumor xenografts: HER2; assay type: in vivo, human; settings: vs vehicle group, one-way ANOVA
From the text: as §1, §2

HER3 [6] = assay: Reverse phase protein array (RPPA) in MCF-7 tumor xenografts: HER3; assay type: in vivo, human; settings: vs vehicle group, one-way ANOVA
From the text: as §1, §2

HER3 [7] = settings: in vitro and in vivo; cited from earlier work
total HER2 = assay: VeraTag assay total HER2 in MCF-7 xenograft tumors; settings: data from both rounds combined; 8 day treatment
Experimental: as §5, §6, §4, §7

[8] = MCLA-128 25 mg/kg IP, Letrozole […] PO qdx57

## MCLA-128: ADCC-enhanced IgG1 bispecific antibody that targets the HER2:HER3 dimer
[1]; [8]
  Best T/C %: 91.14%
  Best TGE %: 31.59%
  T/C % (at control group day end): 101.56%
  TGI % (at control group day end): 4.87%
  median TGD × 3 (In days): 48.64 days
[1]; number of complete regressions recorded up to Group Day End
  TFS (Tumor Free Survivor): 0
[1]; number of mice with 0 to 14 mm^3 tumor size during at least 3 consecutive measurements
  CR (complete regression): 0
[1]; number of mice with constant tumor size during at least 6 consecutive measurements
  TS (Tumor Stabilization): 1/9 and 1
[1]; number of mice with tumor size lower than initial during at least 6 consecutive measurements
  PR (partial regression): 1/9 and 1
[2]
  % TGI (tumor growth inhibition): 0%
  median tumor volume: 600 mm3
  P relative to the control group: > 0.05
  anti-tumor efficacy / survival benefit (in words): no anti-tumor efficacy as a single agent
  Volume (mm^3) of xenograft MCF-7 tumors: 144 mm^3 and 256 mm^3 and 221 mm^3 and 288 mm^3 and 320 mm^3
  Weight (mgs) of xenograft MCF-7 tumors: 120.5 mgs and 98.2 mgs and 135.5 mgs and 134 mgs and 207.7 mgs
[3]
  effect in any of the VeraTag assays relative to vehicle: no significant effect
[4]
  in vitro potency: superior to other anti-HER2 and anti-HER3 antibodies
[5]
  tolerability (in words): well tolerated
[5]; day of maximum as in text
  maximum individual body weight loss: 8.3%
  maximum mean body weight loss: 0.4%

## C[C@]12CC[C@@H]3c4ccc(O)cc4C[C@@H](CCCCCCCCC[S+]([O-])CCCC(F)(F)C(F)(F)F)[C@H]3[C@@H]1CC[C@@H]2O (stereo partly drawn) [Fulvestrant]
[2]
  % TGI (tumor growth inhibition): 52%
  median tumor volume: 288 mm3
  P relative to the control group: < 0.001
  anti-tumor efficacy / survival benefit (in words): significantly reduced tumor growth
[2]; listed as Faslodex®
  Volume (mm^3) of xenograft MCF-7 tumors: 196 mm^3 (3×) and 172 mm^3 and 144 mm^3
  Weight (mgs) of xenograft MCF-7 tumors: 137.9 mgs and 140.1 mgs and 174.4 mgs and 119.7 mgs and 117.3 mgs
HER2:HER3 dimers; data from both rounds combined, 8 day treatment
  HER2:HER3 dimerization (VeraTag): significantly induced HER2:HER3 dimerization compared to vehicle; also recorded: induces the formation of HER2:HER3 dimers
HER2:HER3 dimers; round 1, 3 tumors per group
  HER2:HER3 dimers (VeraTag): significantly upregulated the formation of HER2:HER3 dimers
Total HER3
  HER3 expression (VeraTag): slight increase in HER3
Phosphorylated HER3
  phospho HER3 assay (VeraTag): no significant effect
HER3-PI3K complexes
  HER3-PI3K assay (VeraTag): no significant effect
Akt
  Total and phosphorylated Akt levels (RPPA): increased
HER2
  Total HER2 levels (RPPA): significantly increased
HER3 [6]
  HER3 total levels (RPPA): significantly increased
HER3 [7]
  HER3 expression in MCF-7 cells: upregulate HER3 expression
Total HER2
  HER2 expression levels (VeraTag): significantly higher than in the MCLA-128 single or combined treatment groups; also recorded: significantly higher levels of HER2 expression
